Reference: ChEMBL document CHEMBL3885881, “DrugMatrix”

Species on record: Rattus norvegicus
Test: DrugMatrix - Regimen: Daily Repeat
Type: toxicity, organism-based, Sprague-Dawley
Set-up: regimen Daily Repeat, gender Male, age 6-8 weeks
Conditions: in vivo, po, 3 mg/kg, route oral GAVAGE, dose level Low, […]; for ABSOLUTE BASOPHIL / ABSOLUTE EOSINOPHIL / ABSOLUTE LYMPHOCYTE / ABSOLUTE MONOCYTE / ABSOLUTE SEGMENTED NEUTROPHIL / BASOPHIL / EOSINOPHIL / ERYTHROCYTE COUNT / HEMATOCRIT / HEMOGLOBIN / LEUKOCYTE COUNT / LYMPHOCYTE / MEAN CORPUSCULAR HEMOGLOBIN / MEAN CORPUSCULAR HEMOGLOBIN CONCENTRATION / MEAN CORPUSCULAR VOLUME / MONOCYTE / NEUTROPHIL / NUCLEATED RED BLOOD CELLS / PLATELET COUNT: tissue Blood; for ALANINE AMINOTRANSFERASE / ALBUMIN / ALKALINE PHOSPHATASE / ASPARTATE AMINOTRANSFERASE / BLOOD UREA NITROGEN / CARBON DIOXIDE / CHLORIDE / CHOLESTEROL / CREATINE PHOSPHOKINASE / CREATININE / GLUCOSE / LACTATE DEHYDROGENASE / LIPASE / POTASSIUM / SODIUM / TOTAL BILIRUBIN / TOTAL PROTEIN / URIC ACID: tissue Plasma

SMILES: CCc1ccc(CCOc2ccc(CC3SC(=O)NC3=O)cc2)nc1 (centres undefined) [PIOGLITAZONE]
- ABSOLUTE BASOPHIL (72 h, time 3 day): 0 CELLS/uL
- ABSOLUTE EOSINOPHIL (72 h, time 3 day): 196.67 CELLS/uL
- ABSOLUTE LYMPHOCYTE (72 h, time 3 day): 13366 CELLS/uL
- ABSOLUTE MONOCYTE (72 h, time 3 day): 155.33 CELLS/uL
- ABSOLUTE SEGMENTED NEUTROPHIL (72 h, time 3 day): 1182 CELLS/uL
- BASOPHIL (72 h, time 3 day): 0%
- EOSINOPHIL (72 h, time 3 day): 1.33%
- ERYTHROCYTE COUNT (72 h, time 3 day): 5.51 x10E6/uL
- HEMATOCRIT (72 h, time 3 day): 35.97%
- HEMOGLOBIN (72 h, time 3 day): 13.93 G/DL
- LEUKOCYTE COUNT (72 h, time 3 day): 14.9 x10E3/uL
- LYMPHOCYTE (72 h, time 3 day): 89.67%
- MEAN CORPUSCULAR HEMOGLOBIN (72 h, time 3 day): 25.3 pg
- MEAN CORPUSCULAR HEMOGLOBIN CONCENTRATION (72 h, time 3 day): 38.77 G/DL
- MEAN CORPUSCULAR VOLUME (72 h, time 3 day): 65.23 fL
- MONOCYTE (72 h, time 3 day): 1%
- NEUTROPHIL (72 h, time 3 day): 8%
- NUCLEATED RED BLOOD CELLS (72 h, time 3 day): 0 /100WBC
- PLATELET COUNT (72 h, time 3 day): 1174 x10E3/uL
- ALANINE AMINOTRANSFERASE (72 h, time 3 day): 60.33 u/L
- ALBUMIN (72 h, time 3 day): 4.03 G/DL
- ALKALINE PHOSPHATASE (72 h, time 3 day): 427.33 u/L
- ASPARTATE AMINOTRANSFERASE (72 h, time 3 day): 94.33 u/L
- BLOOD UREA NITROGEN (72 h, time 3 day): 8.67 mg/dL
- CARBON DIOXIDE (72 h, time 3 day): 32.67 mmol/L
- CHLORIDE (72 h, time 3 day): 103.67 MEQ/L
- CHOLESTEROL (72 h, time 3 day): 64.67 mg/dL
- CREATINE PHOSPHOKINASE (72 h, time 3 day): 625.67 u/L
- CREATININE (72 h, time 3 day): 0.22 mg/dL
- GLUCOSE (72 h, time 3 day): 155.67 mg/dL
- LACTATE DEHYDROGENASE (72 h, time 3 day): 125.67 u/L
- LIPASE (72 h, time 3 day): 12.33 u/L
- POTASSIUM (72 h, time 3 day): 6.21 MEQ/L
- SODIUM (72 h, time 3 day): 145.77 MEQ/L
- TOTAL BILIRUBIN (72 h, time 3 day): 0.13 mg/dL
- TOTAL PROTEIN (72 h, time 3 day): 5.33 G/DL
- URIC ACID (72 h, time 3 day): 1.63 mg/dL
- ABSOLUTE BASOPHIL (120 h, time 5 day): 0 CELLS/uL
- ABSOLUTE EOSINOPHIL (120 h, time 5 day): 37 CELLS/uL
- ABSOLUTE LYMPHOCYTE (120 h, time 5 day): 11883.67 CELLS/uL
- ABSOLUTE MONOCYTE (120 h, time 5 day): 95.33 CELLS/uL
- ABSOLUTE SEGMENTED NEUTROPHIL (120 h, time 5 day): 1150.67 CELLS/uL
- BASOPHIL (120 h, time 5 day): 0%
- EOSINOPHIL (120 h, time 5 day): 0.33%
- ERYTHROCYTE COUNT (120 h, time 5 day): 5.61 x10E6/uL
- HEMATOCRIT (120 h, time 5 day): 36.33%
- HEMOGLOBIN (120 h, time 5 day): 14.47 G/DL
- LEUKOCYTE COUNT (120 h, time 5 day): 13.17 x10E3/uL
- LYMPHOCYTE (120 h, time 5 day): 90.33%
- MEAN CORPUSCULAR HEMOGLOBIN (120 h, time 5 day): 25.8 pg
- MEAN CORPUSCULAR HEMOGLOBIN CONCENTRATION (120 h, time 5 day): 39.83 G/DL
- MEAN CORPUSCULAR VOLUME (120 h, time 5 day): 64.8 fL
- MONOCYTE (120 h, time 5 day): 0.67%
- NEUTROPHIL (120 h, time 5 day): 8.67%
- NUCLEATED RED BLOOD CELLS (120 h, time 5 day): 0 /100WBC
- PLATELET COUNT (120 h, time 5 day): 1242.33 x10E3/uL
- ALANINE AMINOTRANSFERASE (120 h, time 5 day): 58.33 u/L
- ALBUMIN (120 h, time 5 day): 4.03 G/DL
- ALKALINE PHOSPHATASE (120 h, time 5 day): 346.67 u/L
- ASPARTATE AMINOTRANSFERASE (120 h, time 5 day): 87.67 u/L
- BLOOD UREA NITROGEN (120 h, time 5 day): 13 mg/dL
- CARBON DIOXIDE (120 h, time 5 day): 30.67 mmol/L
- CHLORIDE (120 h, time 5 day): 101 MEQ/L
- CHOLESTEROL (120 h, time 5 day): 64.67 mg/dL
- CREATINE PHOSPHOKINASE (120 h, time 5 day): 464 u/L
- CREATININE (120 h, time 5 day): 0.13 mg/dL
- GLUCOSE (120 h, time 5 day): 150.33 mg/dL
- LACTATE DEHYDROGENASE (120 h, time 5 day): 542.33 u/L
- LIPASE (120 h, time 5 day): 11.33 u/L
- POTASSIUM (120 h, time 5 day): 6.64 MEQ/L
- SODIUM (120 h, time 5 day): 142.57 MEQ/L
- TOTAL BILIRUBIN (120 h, time 5 day): 0.2 mg/dL
- TOTAL PROTEIN (120 h, time 5 day): 5.7 G/DL
- URIC ACID (120 h, time 5 day): 1.57 mg/dL
